Data reported in publication PMC12042115 (mLife, 2025).
Read-outs that look alike come from different tables or passages of the source.

System: wild‐type BCG cells
Type: cell-based, M. bovis BCG
Conditions: for Mean Ratio: GDI5755_2d vs DMSO_2d; for Mean Ratio / Mean Ratio (GDI5755_2d vs DMSO_2d): up-regulated; for Mean_Ratio (GDI5755_3d vs DMSO_3d): down-regulated, 3 d; for Mean Ratio (GDI5755_2d vs DMSO_2d): 2d

## O=C(Oc1ccc(Cl)cc1)c1ccc(N2CCOCC2)c([N+](=O)[O-])c1 [GDI‐5755]
Protein A1KKK9 Transcriptional regulator MraZ
  Mean Ratio: 1.25
Protein A1KKR8, BCG_2242 (Rv2225), 3-methyl-2-oxobutanoate hydroxymethyltransferase
  Mean_Ratio (GDI5755_3d vs DMSO_3d): 0.748
Protein A1KLF3, BCG_2477c (Rv2457c), ATP-dependent Clp protease ATP-binding subunit ClpX
  Mean_Ratio (GDI5755_3d vs DMSO_3d): 0.743
Protein A1KLT2, BCG_2607c (Rv2584c), Adenine phosphoribosyltransferase
  Mean_Ratio (GDI5755_3d vs DMSO_3d): 0.7
Protein A1KMA6, BCG_2781c (Rv2764c), Thymidylate synthase
  Mean_Ratio (GDI5755_3d vs DMSO_3d): 0.7
Protein A1KNI8 UPF0182 protein BCG_3215c
  Mean Ratio (GDI5755_2d vs DMSO_2d): 1.34
Protein A1KNQ0 Adenosylhomocysteinase
  Mean Ratio: 1.26
Protein A1KQ47, BCG_3775c (Rv3715c), Recombination protein RecR
  Mean_Ratio (GDI5755_3d vs DMSO_3d): 0.7
Protein BCG_0095 A1KEN2 UPF0182 protein
  Mean Ratio (GDI5755_2d vs DMSO_2d): 1.41
Protein BCG_0108c A0A0H3M9Q4 Probable oxidoreductase
  Mean Ratio (GDI5755_2d vs DMSO_2d): 1.77
Protein BCG_0130 A0A0H3M0N8 Possible oxidoreductase
  Mean Ratio (GDI5755_2d vs DMSO_2d): 1.72
Protein BCG_0132 A0A0H3M2I5 Possible fatty-acid-CoA ligase fadD10
  Mean Ratio (GDI5755_2d vs DMSO_2d): 1.49
Protein BCG_0178 A0A0H3M7D0 DNA glycosylase
  Mean Ratio (GDI5755_2d vs DMSO_2d): 1.58
Protein BCG_0181 A1KEW5 Putative S-adenosyl-L-methionine-dependent methyltransferase
  Mean Ratio (GDI5755_2d vs DMSO_2d): 2.17
Protein BCG_0182 A1KEW6 Putative S-adenosyl-L-methionine-dependent methyltransferase
  Mean Ratio (GDI5755_2d vs DMSO_2d): 2.71
Protein BCG_0228 A0A0H3MA02 Probable conserved integral membrane protein
  Mean Ratio (GDI5755_2d vs DMSO_2d): 1.46
Protein BCG_0248 A1KF31 Phosphoenolpyruvate carboxykinase [GTP],pckG
  Mean Ratio (GDI5755_2d vs DMSO_2d): 1.87
Protein BCG_0282c A0A0H3M7K8 Probable acyl-CoA dehydrogenase fadE5
  Mean Ratio (GDI5755_2d vs DMSO_2d): 1.45
Protein BCG_0289c A0A0H3MA45 HSP20 family protein/ Heat stress induced ribosome-binding protein A,acr2
  Mean Ratio (GDI5755_2d vs DMSO_2d): 3.46
Protein BCG_0353 A0A0H3M1Y1 Transmembrane protein
  Mean Ratio (GDI5755_2d vs DMSO_2d): 1.84
Protein BCG_0380 A0A0H3MAC3 Isoniazid inductible gene protein iniB
  Mean Ratio (GDI5755_2d vs DMSO_2d): 1.73
Protein BCG_0389 A1KFH2 Chaperone protein DnaK
  Mean Ratio (GDI5755_2d vs DMSO_2d): 1.52
Protein BCG_0390 A1KFH3 Protein GrpE
  Mean Ratio (GDI5755_2d vs DMSO_2d): 1.53
Protein BCG_0391 A0A0H3M380 Chaperone protein DnaJ
  Mean Ratio (GDI5755_2d vs DMSO_2d): 1.51
Protein BCG_0422c A0A0H3M7W9 Chaperone protein ClpB
  Mean Ratio (GDI5755_2d vs DMSO_2d): 1.56
Protein BCG_0465c A0A0H3M812 Possible transmembrane protein
  Mean Ratio (GDI5755_2d vs DMSO_2d): 1.45
Protein BCG_0490c A0A0H3M1K6 Probable conserved membrane protein mmpS4
  Mean Ratio (GDI5755_2d vs DMSO_2d): 1.45
Protein BCG_0494c A0A0H3M296 DUF5078 domain-containing protein
  Mean Ratio (GDI5755_2d vs DMSO_2d): 1.52
Protein BCG_0507 A0A0H3M3L9 isocitrate lyase
  Mean Ratio (GDI5755_2d vs DMSO_2d): 1.56
Protein BCG_0517 A0A0H3M881 Possible conserved transmembrane protein
  Mean Ratio (GDI5755_2d vs DMSO_2d): 1.43
Protein BCG_0565 A0A0H3M3T9 Probable gaba permease gabP (4-amino butyrate transport carrier)
  Mean Ratio (GDI5755_2d vs DMSO_2d): 1.46
Protein BCG_0578c A0A0H3M3U8 1,4-dihydroxy-2-naphthoate octaprenyltransferase
  Mean Ratio (GDI5755_2d vs DMSO_2d): 1.66
Protein BCG_0605c A1KG37 2-heptyl-1-hydroxyquinolin-4(1H)-one methyltransferase
  Mean Ratio (GDI5755_2d vs DMSO_2d): 2.76
Protein BCG_0614 A0A0H3M8E5 DUF1918 domain-containing protein
  Mean Ratio (GDI5755_2d vs DMSO_2d): 1.43
Protein BCG_0623c A0A0H3M1W6 PE-PGRS family protein
  Mean Ratio (GDI5755_2d vs DMSO_2d): 1.87
Protein BCG_0725c A0A0H3MAX0 Probable conserved transmembrane transport protein mmpL5
  Mean Ratio (GDI5755_2d vs DMSO_2d): 1.69
Protein BCG_0727 A0A0H3M257 Transcriptional regulator
  Mean Ratio (GDI5755_2d vs DMSO_2d): 1.43
Protein BCG_0761 A0A0H3M268 Possible arylsulfatase atsA
  Mean Ratio (GDI5755_2d vs DMSO_2d): 1.61
Protein BCG_0776c A1KGK7 Putative S-adenosyl-L-methionine-dependent methyltransferase BCG_0776c
  Mean Ratio (GDI5755_2d vs DMSO_2d): 1.55
Protein BCG_0835 A0A0H3M322 Deacetylase
  Mean Ratio (GDI5755_2d vs DMSO_2d): 1.55
Protein BCG_0883 A1KGW3 Putative S-adenosyl-L-methionine-dependent methyltransferase BCG_0883
  Mean Ratio (GDI5755_2d vs DMSO_2d): 1.87
Protein BCG_0969 A0A0H3M4Q4 Possible glycine betaine transport integral membrane protein betP
  Mean Ratio (GDI5755_2d vs DMSO_2d): 1.64
Protein BCG_1053 A0A0H3M3P8 Uncharacterized protein
  Mean Ratio (GDI5755_2d vs DMSO_2d): 1.56
Protein BCG_1115 A0A0H3M9F1 Uncharacterized protein
  Mean Ratio (GDI5755_2d vs DMSO_2d): 1.90
Protein BCG_1130 A0A0H3M9G5 Probable conserved transmembrane protein
  Mean Ratio (GDI5755_2d vs DMSO_2d): 1.64
Protein BCG_1191 A0A0H3M5B0 2-methylcitrate dehydratase
  Mean Ratio (GDI5755_2d vs DMSO_2d): 1.57
Protein BCG_1249 A0A0H3M3D0 L-glutamate gamma-semialdehyde dehydrogenase
  Mean Ratio (GDI5755_2d vs DMSO_2d): 1.49
Protein BCG_1281 A0A0H3M3F3 Alternative RNA polymerase sigma factor sigE
  Mean Ratio (GDI5755_2d vs DMSO_2d): 1.41
Protein BCG_1309c A0A0H3M3H0 Possible membrane protein
  Mean Ratio (GDI5755_2d vs DMSO_2d): 1.44
Protein BCG_1334 A0A0H3M3I9 Lipoprotein lprC
  Mean Ratio (GDI5755_2d vs DMSO_2d): 1.55
Protein BCG_1404c A0A0H3M3N1 Conserved membrane protein
  Mean Ratio (GDI5755_2d vs DMSO_2d): 1.78
Protein BCG_1574c A0A0H3M689 Probable conserved transmembrane transport protein mmpL12
  Mean Ratio (GDI5755_2d vs DMSO_2d): 1.47
Protein BCG_1609 A0A0H3M480 Probable conserved transmembrane transport protein mmpL6
  Mean Ratio (GDI5755_2d vs DMSO_2d): 1.85
Protein BCG_1660c A0A0H3M5A2 Probable integral membrane cytochrome D ubiquinol oxidase (Subunit II) cydB
  Mean Ratio (GDI5755_2d vs DMSO_2d): 1.42
Protein BCG_1661c A0A0H3M4E4 Probable integral membrane cytochrome D ubiquinol oxidase (Subunit I) cydA
  Mean Ratio (GDI5755_2d vs DMSO_2d): 1.57
Protein BCG_1890c A0A0H3MB87 Type II NADH dehydrogenase Ndh/Rv1854c
  Mean Ratio (GDI5755_2d vs DMSO_2d): 1.53
Protein BCG_2010c A0A0H3M561 DUF1490 family protein
  Mean Ratio (GDI5755_2d vs DMSO_2d): 1.88
Protein BCG_2056c A0A0H3MBM9 Possible conserved transmembrane protein
  Mean Ratio (GDI5755_2d vs DMSO_2d): 1.52
Protein BCG_2072c A0A0H3M7M3 Probable transmembrane protein
  Mean Ratio (GDI5755_2d vs DMSO_2d): 2.05
Protein BCG_2419c A0A0H3M8K8 Probable conserved lipoprotein lppR
  Mean Ratio (GDI5755_2d vs DMSO_2d): 1.48
Protein BCG_2583 A0A0H3M7F6 Probable proline and glycine rich transmembrane protein
  Mean Ratio (GDI5755_2d vs DMSO_2d): 1.73
Protein BCG_2657 A0A0H3M963 Archease domain-containing protein
  Mean Ratio (GDI5755_2d vs DMSO_2d): 1.52
Protein BCG_2934c A0A0H3M896 Possible D-amino acid aminohydrolase
  Mean Ratio (GDI5755_2d vs DMSO_2d): 1.77
Protein BCG_2965 A0A0H3MDP7 Probable transposase for insertion sequence element IS1533
  Mean Ratio (GDI5755_2d vs DMSO_2d): 2.65
Protein BCG_3007c A0A0H3M7X4 DNA-binding protein HupB
  Mean Ratio (GDI5755_2d vs DMSO_2d): 1.45
Protein BCG_3038 A0A0H3MA42 Probable lipoprotein lpqA
  Mean Ratio (GDI5755_2d vs DMSO_2d): 1.97
